Laboratory results from publication PMC7413254 (Nature Communications, 2020).
Where two headings read alike, the source gives them in different places.

Columns and labels:
[1] = test system: non-expressing oocytes; test: cells; format: cell-based, Xenopus laevis; conditions: non-expressing oocytes, total [3H]CQ transport, normalised to the oocyte type control
In short: (§1)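 Assay buffer ND96 (10 mM MES, 10 mM Tris-base) held at pH 5.5 to mimic vacuole lumen; uptake measured inward from this acidic medium over 1.5 h at 27.5 °C.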

[2] = target: T1, PfCRT^3D7 (Plasmodium falciparum, UniProt Q8IBZ9); test: cell-based; format: cell-based; conditions: PfCRT3D7 oocytes, total [3H]CQ transport, normalised to the oocyte type control
In short: as §1

[3] = target: T2, PfCRT^Dd2 (Plasmodium falciparum, UniProt Q9N623, A220S/I356T/K76T/M74I/N326S/N75E/Q271E/R371I); test: [3H]CQ uptake into Xenopus oocytes, cis-inhibition by unlabelled solute; format: cell-based; conditions: PfCRTDd2 oocytes, background [3H]CQ accumulation subtracted, normalised to oocyte type control
In short: as §1

[4] = target: T3, PfCRT^Ecu1110 (Plasmodium falciparum, UniProt Q9N623, A220S/I356L/K76T/N326D); test: as above; format: cell-based; conditions: for Uptake of [3H]CQ (% PfCRTEcu1110 control), cis-inhibition / PfCRT-mediated [3H]CQ transport, cis-inhibition (% PfCRTEcu1110 control): PfCRTEcu1110 oocytes; for Uptake of [3H]CQ (% PfCRTEcu1110 control), cis-inhibition: total [3H]CQ transport, normalised to the oocyte type control; for PfCRT-mediated [3H]CQ transport, cis-inhibition (% PfCRTEcu1110 control): background [3H]CQ accumulation subtracted, normalised to oocyte type control; for [3H]CQ transport (% PfCRTEcu1110 control), cis-inhibition, PfCRTEcu1110: PfCRT-mediated component (background subtracted), sheet title says normalised to PfCRTDd2 control, mean ± SEM, SEM
In short: as §1

[5] = test system: non-expressing oocytes; format: cell-based, Xenopus laevis; conditions: non-expressing oocytes, total [3H]CQ transport, normalised to the oocyte type control
In short: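 Oocytes (ten per treatment, ≥4 independent frogs/days) were preloaded by injecting VF-6 in 25 nL ND96 at pH 5.0, 5.5, 6.0 or 7.0, or Na^+-free choline buffer, then uptake run 1.5 h, 27.5 °C, ND96 pH 5.5 by default. Internal concentrations assumed ~400 nL oocyte volume.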

[6] = target: T1, PfCRT^3D7; test: cell-based; format: cell-based; conditions: PfCRT3D7 oocytes; for Uptake of [3H]CQ (% PfCRT3D7 control), trans-stimulation: total [3H]CQ transport, normalised to the oocyte type control; for PfCRT-mediated [3H]CQ transport, trans-stimulation (% PfCRT3D7 control): normalised to oocyte type control
In short: (§2)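 Transport measured in Xenopus oocytes expressing the transporters, 1.5 h at 27.5 °C in ND96 pH 5.5 unless noted. For trans-stimulation, VF-6 injected in 25 nL ND96 at pH 5.0–7.0 or Na^+-free (choline) buffer; intracellular levels based on ~400 nL oocyte volume. Ten oocytes per treatment, ≥4 experiments.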

[7] = target: T2, PfCRT^Dd2; test: cell-based; format: cell-based; conditions: for PfCRT-mediated [3H]CQ transport, trans-stimulation (% PfCRTDd2 control): normalised to oocyte type control; for [3H]CQ transport (% PfCRTDd2 control), trans-stimulation, PfCRTDd2: PfCRT-mediated component (background subtracted), mean ± SEM, SEM
In short: as §2

[8] = target: T3, PfCRT^Ecu1110; test: cell-based; format: cell-based; conditions: for Uptake of [3H]CQ (% PfCRTEcu1110 control), trans-stimulation / PfCRT-mediated [3H]CQ transport, trans-stimulation (% PfCRTEcu1110 control): PfCRTEcu1110 oocytes; for Uptake of [3H]CQ (% PfCRTEcu1110 control), trans-stimulation: total [3H]CQ transport, normalised to the oocyte type control; for PfCRT-mediated [3H]CQ transport, trans-stimulation (% PfCRTEcu1110 control): normalised to oocyte type control; for [3H]CQ transport (% PfCRTDd2 control), trans-stimulation, PfCRTEcu1110: PfCRT-mediated component (background subtracted), sheet title says normalised to PfCRTDd2 control, mean ± SEM, SEM
In short: as §2

[9] = target: T4, PfNT1 (Plasmodium falciparum, UniProt Q8IDM6); test: cell-based; format: cell-based; conditions: PfNT1 oocytes, total [3H]CQ transport, normalised to the oocyte type control
T4 construct: expressed in transfected cells; host or cells: Xenopus laevis oocytes (stage V-VI), cRNA-injected
In short: as §2

[10] = test system: PfCRT; test: Potential co-substrates tested for influx of VF-6 via PfCRT into the oocyte; format: cell-based, Plasmodium falciparum; design: key: X: Compounds that have been tested as potential co-substrates but are not required for influx of VF-6 via PfCRT into the oocyte
[11] = [test solute]i = 45 mM (30 mM for some solutes due to solubility)
[12] = [test solute]i = 5 mM (intracellular)
[13] = [test solute]i = 45 mM (intracellular; 30 mM for some solutes due to solubility)
[14] = [test solute]i = 5 mM (injected)

T1 sequence (Q8IBZ9 59-398): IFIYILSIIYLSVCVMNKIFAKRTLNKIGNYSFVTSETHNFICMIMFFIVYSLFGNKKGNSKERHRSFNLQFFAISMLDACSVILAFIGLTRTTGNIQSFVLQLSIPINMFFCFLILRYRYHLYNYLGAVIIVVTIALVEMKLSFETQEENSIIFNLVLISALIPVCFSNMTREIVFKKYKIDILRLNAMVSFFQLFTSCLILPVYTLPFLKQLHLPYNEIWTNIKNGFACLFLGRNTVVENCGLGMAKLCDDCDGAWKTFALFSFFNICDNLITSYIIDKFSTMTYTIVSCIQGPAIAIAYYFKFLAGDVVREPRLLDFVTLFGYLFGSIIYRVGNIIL
T3 sequence (Q9N623 whole entry A220S/I356L/K76T/N326D): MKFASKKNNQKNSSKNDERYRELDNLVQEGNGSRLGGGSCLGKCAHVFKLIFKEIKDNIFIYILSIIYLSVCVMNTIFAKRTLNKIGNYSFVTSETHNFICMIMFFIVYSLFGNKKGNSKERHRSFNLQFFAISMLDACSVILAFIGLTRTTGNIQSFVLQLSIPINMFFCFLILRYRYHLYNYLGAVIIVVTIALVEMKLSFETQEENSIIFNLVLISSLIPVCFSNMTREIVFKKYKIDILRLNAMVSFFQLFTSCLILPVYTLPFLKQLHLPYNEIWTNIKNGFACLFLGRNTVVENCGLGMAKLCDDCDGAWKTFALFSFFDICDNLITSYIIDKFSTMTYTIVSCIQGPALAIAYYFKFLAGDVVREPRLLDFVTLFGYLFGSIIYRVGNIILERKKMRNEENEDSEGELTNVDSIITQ
T2 sequence (Q9N623 whole entry A220S/I356T/K76T/M74I/N326S/N75E/Q271E/R371I): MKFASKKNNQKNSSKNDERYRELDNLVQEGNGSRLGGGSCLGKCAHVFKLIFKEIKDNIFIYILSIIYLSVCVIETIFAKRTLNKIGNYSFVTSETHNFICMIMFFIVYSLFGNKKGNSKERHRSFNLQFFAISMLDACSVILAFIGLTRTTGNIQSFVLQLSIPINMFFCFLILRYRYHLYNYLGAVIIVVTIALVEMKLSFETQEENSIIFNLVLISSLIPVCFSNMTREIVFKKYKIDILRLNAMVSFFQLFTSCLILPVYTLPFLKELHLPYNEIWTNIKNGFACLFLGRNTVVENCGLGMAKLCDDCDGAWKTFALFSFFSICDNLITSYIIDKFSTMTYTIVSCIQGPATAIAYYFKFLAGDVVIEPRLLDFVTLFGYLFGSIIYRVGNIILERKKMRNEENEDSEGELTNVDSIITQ
T4 sequence (Q8IDM6 whole entry): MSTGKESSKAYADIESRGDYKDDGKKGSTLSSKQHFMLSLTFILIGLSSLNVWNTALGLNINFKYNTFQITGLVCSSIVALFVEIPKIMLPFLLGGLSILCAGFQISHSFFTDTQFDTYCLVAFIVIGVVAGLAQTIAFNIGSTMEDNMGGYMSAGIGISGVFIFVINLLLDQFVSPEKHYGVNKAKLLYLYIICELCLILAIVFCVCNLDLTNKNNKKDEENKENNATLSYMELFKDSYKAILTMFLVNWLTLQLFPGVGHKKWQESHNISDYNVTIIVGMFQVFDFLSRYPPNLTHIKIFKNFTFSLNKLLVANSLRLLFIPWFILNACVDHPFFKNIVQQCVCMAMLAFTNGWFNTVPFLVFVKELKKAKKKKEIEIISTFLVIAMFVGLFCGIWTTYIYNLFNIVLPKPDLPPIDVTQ

## PVNF [PF-4]
[1]; [test solute] = 0.5 mM
  Uptake of [3H]CQ (% non-expressing oocyte control), cis-inhibition: 98 ± 4.8 % non-expressing oocyte control
[1]; [test solute] = 1 mM
  Uptake of [3H]CQ (% non-expressing oocyte control), cis-inhibition: 99 ± 2.6 % non-expressing oocyte control
[1]; [test solute] = 2 mM
  Uptake of [3H]CQ (% non-expressing oocyte control), cis-inhibition: 98 ± 3.6 % non-expressing oocyte control
[2]; [test solute] = 0.5 mM
  Uptake of [3H]CQ (% PfCRT3D7 control), cis-inhibition: 99 ± 4.7 % PfCRT3D7 control
[2]; [test solute] = 1 mM
  Uptake of [3H]CQ (% PfCRT3D7 control), cis-inhibition: 100 ± 5.6 % PfCRT3D7 control
[2]; [test solute] = 2 mM
  Uptake of [3H]CQ (% PfCRT3D7 control), cis-inhibition: 101 ± 5.3 % PfCRT3D7 control
[3]; [test solute] = 0.5 mM
  PfCRT-mediated [3H]CQ transport, cis-inhibition (% PfCRTDd2 control): 60 ± 3.3 % PfCRTDd2 control
[3]; [test solute] = 1 mM
  PfCRT-mediated [3H]CQ transport, cis-inhibition (% PfCRTDd2 control): 51 ± 0.3 % PfCRTDd2 control
[3]; [test solute] = 2 mM
  PfCRT-mediated [3H]CQ transport, cis-inhibition (% PfCRTDd2 control): 39 ± 2.1 % PfCRTDd2 control
[4]; [test solute] = 0.5 mM
  Uptake of [3H]CQ (% PfCRTEcu1110 control), cis-inhibition: 65 ± 4.3 % PfCRTEcu1110 control
  PfCRT-mediated [3H]CQ transport, cis-inhibition (% PfCRTEcu1110 control): 61 ± 2.6 % PfCRTEcu1110 control
[4]; [test solute] = 1 mM
  Uptake of [3H]CQ (% PfCRTEcu1110 control), cis-inhibition: 59 ± 3.3 % PfCRTEcu1110 control
  PfCRT-mediated [3H]CQ transport, cis-inhibition (% PfCRTEcu1110 control): 51 ± 4.2 % PfCRTEcu1110 control
  [3H]CQ transport (% PfCRTEcu1110 control), cis-inhibition, PfCRTEcu1110: 16 ± 0.2 % PfCRTEcu1110 control
[4]; [test solute] = 2 mM
  Uptake of [3H]CQ (% PfCRTEcu1110 control), cis-inhibition: 41 ± 2.4 % PfCRTEcu1110 control
  PfCRT-mediated [3H]CQ transport, cis-inhibition (% PfCRTEcu1110 control): 37 ± 2.9 % PfCRTEcu1110 control
  [3H]CQ transport (% PfCRTEcu1110 control), cis-inhibition, PfCRTEcu1110: 12 ± 0.3 % PfCRTEcu1110 control
[5]; [test solute]i = 5 mM
  Uptake of [3H]CQ (% non-expressing oocyte control), trans-stimulation: 99 ± 2.7 % non-expressing oocyte control
[5]; [11]
  Uptake of [3H]CQ (% non-expressing oocyte control), trans-stimulation: 99 ± 3.4 % non-expressing oocyte control
[6]; [test solute]i = 5 mM
  Uptake of [3H]CQ (% PfCRT3D7 control), trans-stimulation: 138 ± 4.2 % PfCRT3D7 control
[6]; [11]
  Uptake of [3H]CQ (% PfCRT3D7 control), trans-stimulation: 163 ± 7.4 % PfCRT3D7 control
[6]; [12]
  PfCRT-mediated [3H]CQ transport, trans-stimulation (% PfCRT3D7 control): 130 ± 3.2 % PfCRT3D7 control
[6]; [13]
  PfCRT-mediated [3H]CQ transport, trans-stimulation (% PfCRT3D7 control): 157 ± 4.4 % PfCRT3D7 control
[7]; PfCRTDd2 oocytes, [test solute]i = 45 mM (30 mM for some solutes due to solubility), total [3H]CQ transport, normalised to the oocyte type control
  Uptake of [3H]CQ (% PfCRTDd2 control), trans-stimulation: 115 ± 2.7 % PfCRTDd2 control
[7]; [test solute]i = 5 mM (intracellular), PfCRTDd2 oocytes
  PfCRT-mediated [3H]CQ transport, trans-stimulation (% PfCRTDd2 control): 99 ± 1.9 % PfCRTDd2 control
[7]; [test solute]i = 45 mM (intracellular; 30 mM for some solutes due to solubility), PfCRTDd2 oocytes
  PfCRT-mediated [3H]CQ transport, trans-stimulation (% PfCRTDd2 control): 112 ± 0.9 % PfCRTDd2 control
[7]; [14]
  [3H]CQ transport (% PfCRTDd2 control), trans-stimulation, PfCRTDd2: 99 ± 1.9 % PfCRTDd2 control
[7]; [11]
  [3H]CQ transport (% PfCRTDd2 control), trans-stimulation, PfCRTDd2: 112 ± 0.9 % PfCRTDd2 control
[8]; [test solute]i = 5 mM
  Uptake of [3H]CQ (% PfCRTEcu1110 control), trans-stimulation: 120 ± 1.1 % PfCRTEcu1110 control
[8]; [11]
  Uptake of [3H]CQ (% PfCRTEcu1110 control), trans-stimulation: 135 ± 1.4 % PfCRTEcu1110 control
  [3H]CQ transport (% PfCRTDd2 control), trans-stimulation, PfCRTEcu1110: 39 ± 1.7 % PfCRTEcu1110 control
[8]; [12]
  PfCRT-mediated [3H]CQ transport, trans-stimulation (% PfCRTEcu1110 control): 118 ± 0.3 % PfCRTEcu1110 control
[8]; [13]
  PfCRT-mediated [3H]CQ transport, trans-stimulation (% PfCRTEcu1110 control): 130 ± 3.2 % PfCRTEcu1110 control
[8]; [14]
  [3H]CQ transport (% PfCRTDd2 control), trans-stimulation, PfCRTEcu1110: 36 ± 1.3 % PfCRTEcu1110 control
[9]; [test solute]i = 5 mM
  Uptake of [3H]CQ (% PfNT1 control), trans-stimulation: 99 ± 4.2 % PfNT1 control
[9]; [11]
  Uptake of [3H]CQ (% PfNT1 control), trans-stimulation: 100 ± 2.9 % PfNT1 control
[10]
  Tested as potential co-substrate but not required for influx of VF-6 via PfCRT into the oocyte: X
